# According to PMC6110922, “Inhibition of Chloride Intracellular Channel 1 (CLIC1) as Biguanide Class-Effect to Impair Human Glioblastoma Stem Cell Viability” (Frontiers in Pharmacology, 2018):
# Where a name gives a salt, the structure may show the parent alone.
# Biological target: T1, chloride intracellular channel 1 (CLIC1) (Homo sapiens, UniProt O00299)
# T1 construct: endogenous channel in GBM2 and GBM4 glioblastoma stem cells
# Assay: perforated-patch whole-cell patch clamp, CLIC1 (IAA94-sensitive) current
# Assay type: cell-based
row,SMILES,"perforated-patch whole-cell patch clamp, CLIC1 (IAA94-sensitive) current"
1,"CN(C)C(=N)NC(=N)N [metformin, 1,1-dimethylbiguanide hydrochloride]",10 mM
2,CC1(C)N=C(N)N=C(N)N1c1ccc(Cl)cc1 [cycloguanil],0.5 mM
